Test results published in patent publication US11578087B2, “Oxaborole esters and uses thereof” (priority 2016, dated 2023).
pIC50: −log10 of the molar value.

Tests used:
[1] = test system: T. cruzi amastigote (Td Tomato-modified) in Vero cells; test: In vitro IC50 measurement of T. cruzi amastigote killing using Td Tomato-modified T. cruzi; assay type: cell-based; settings: Trypanosoma cruzi, 72 h, fluorescence, read-out: IC50: I Org. amastigote Growth T. cruzi 3 d
Method: Example 254. In Vitro IC50 Measurement of T. cruzi Amastigote Killing Using Td Tomato-Modified T. cruzi
The T. cruzi parasites used in this assay were genetically modified to express Td Tomato fluorescent protein. Vero cells (African green monkey kidney epithelial cells) were harvested from continuous cultures using trypsin and added to the inner 60 wells of 96-well Greiner Bio One plates (plate catalog #655090) at 200 ul/well of […]. Cells were allowed to adhere for 1 h before infection with T. cruzi. T. cruzi for infection were harvested from previously-infected Vero cells, washed, pelleted and resuspended at 5×10^6/mL. 50 uL of parasites were added to each well containing Vero cells. Compounds were prepared from 5 mM stock concentrations in DMSO to final concentrations in wells ranging from 5 uM to 5 nM. Wells were provided for negative controls, lacking compounds. Plates were placed into a 37° C. incubator for 20 min, then a “Day 0” reading was taken on a Synergy H4 plate reader to record initial fluorescence levels, at 544 (excitation) and 612 nm (emission). 96-well plates were placed in Tupperware containers with wet paper towels and incubated at 37° C. incubator for 72 h. After 72 h plates were reread (Day 3 reading) and data analyzed using Excel and/or Graphpad software. Day 0 fluorescence was subtracted from Day 3 to remove input parasite fluorescence. Growth curves are generated and 50% and 90% inhibitory concentrations are determined by nonlinear regression analysis.

[2] = test system: IL3000 T. congolense (drug sensitive) strain; test: In vitro Alamar Blue 72 h drug sensitivity assay for T. congolense; assay type: cell-based, Trypanosoma congolense; settings: Trypanosoma congolense, 72 h, bloodstream form, 69 h + 3 h Resazurin, 34° C., read-out: IC50: I Org. Growth T. congolense 3 d
Method: Example 252. In Vitro Alamar Blue 72 h Drug Sensitivity Assay for T. congolense
Compounds were tested in vitro for chemotherapeutic potency against the IL3000 T. congolense (drug sensitive) strain, using the Alamar Blue assay with several modifications. Test compounds were prepared as 10 mg/mL DMSO stocks for each assay run. Compounds were assayed in at least three separate, independent test runs and an 11-point dilution curve was used to determine the IC50 values. Bloodstream form trypanosomes were supported in HMI media containing 20% bovine serum and were incubated with test compounds for 69 h at 34° C. in a humidified atmosphere containing 5% CO2. Thereafter, 10 μL of Resazurin dye (12.5 mg in 100 mL of phosphate buffered saline, Sigma-Aldrich, Buchs, Switzerland) were added for an additional 3 h. Plates were then read using a fluorescent plate reader (Spectramax, Gemini XS, Bucher Biotec, Basel, Switzerland) using an excitation wavelength of 536 nm and an emission wavelength of 588 nm. Data points were averaged to generate sigmoidal dose-response curves and IC50 values were determined using Softmax Pro 5.2 software.

Work on `Cc1c(C(=O)N[C@H](C(=O)OCC2CCN(C)CC2)C(C)C)ccc2c1B(O)OC2` [Example 6-114, (1-Methylpiperidin-4-yl)methyl (1-hydroxy-7-methyl-1,3-dihydrobenzo[c][1,2]oxaborole-6-carbonyl)-L-valinate] yielded a pIC50 [1] of 6.00 to 7.68 and a pIC50 [2] of 8.00 to 9.29.

Work on `CC(C)[C@H](NC(=O)c1ccc2c(c1)B(O)OC2(C)C)C(=O)OCc1ccc(F)cc1` [Example 6-033, 4-Fluorobenzyl (1-hydroxy-3,3-dimethyl-1,3-dihydrobenzo[c][1,2]oxaborole-6-carbonyl)-L-valinate] yielded a pIC50 [1] of at most 6.00 and a pIC50 [2] of 5.30 to 8.00.

For `Cc1c(C(=O)N[C@H](C(=O)OC2CCC(F)(F)CC2)C(C)C)ccc2c1B(O)OC2` [Example 6-155, 4,4-Difluorocyclohexyl (1-hydroxy-7-methyl-1,3-dihydrobenzo[c][1,2]oxaborole-6-carbonyl)-L-valinate], the pIC50 [1] was at least 7.70 and the pIC50 [2] was over 9.30.

`Cc1c(C(=O)N[C@H](C(=O)OCc2ccc(C(=O)NCCN(C)C)cc2)C(C)C)ccc2c1B(O)OC2` [Example 6-103, 4-((2-(Dimethylamino)ethyl)carbamoyl)benzyl (1-hydroxy-7-methyl-1,3-dihydrobenzo[c][1,2]oxaborole-6-carbonyl)-L-valinate] gave a pIC50 [1] of at most 6.00 and a pIC50 [2] of 5.30 to 8.00.

Compound `CSCC[C@H](NC(=O)c1ccc2c(c1)B(O)OC2)C(=O)OCc1ccccc1` [Example 6-008, Benzyl (1-hydroxy-1,3-dihydrobenzo[c][1,2]oxaborole-6-carbonyl)-L-methioninate] has a pIC50 [1] of 6.00 to 7.68 and a pIC50 [2] of 8.00 to 9.29.

Compound `Cc1c(C(=O)N[C@H](C(=O)OCc2cscn2)C(C)C)ccc2c1B(O)OC2` [Example 6-128, Thiazol-4-ylmethyl (1-hydroxy-7-methyl-1,3-dihydrobenzo[c][1,2]oxaborole-6-carbonyl)-L-valinate] has a pIC50 [1] of 6.00 to 7.68 and a pIC50 [2] of over 9.30.

`Cc1c(C(=O)N[C@H](C(=O)OCc2cc(F)cc(F)c2)C(C)(C)O)ccc2c1B(O)OC2` [Example 6-099, 3,5-Difluorobenzyl (S)-3-hydroxy-2-(1-hydroxy-7-methyl-1,3-dihydrobenzo[c][1,2]oxaborole-6-carboxamido)-3-methylbutanoate] was tested, and the pIC50 [1] was 6.00 to 7.68 and the pIC50 [2] was over 9.30.

`Cc1c(C(=O)N[C@H](C(=O)OCC2(C)CCOC2)C(C)C)ccc2c1B(O)OC2` (stereo partly drawn) [Example 6-233, (3-methyltetrahydrofuran-3-yl)methyl (1-hydroxy-7-methyl-1,3-dihydrobenzo[c][1,2]oxaborole-6-carbonyl)-L-valinate] gave a pIC50 [1] of at least 7.70.

`COCC1(COC(=O)[C@@H](NC(=O)c2ccc3c(c2C)B(O)OC3)C(C)C)COC1` [Example 6-158, (3-(Methoxymethyl)oxetan-3-yl)methyl (1-hydroxy-7-methyl-1,3-dihydrobenzo[c][1,2]oxaborole-6-carbonyl)-L-valinate] gave a pIC50 [1] of 6.00 to 7.68.

`Cc1c(C(=O)N[C@H](C(=O)OCc2ccc(S(N)(=O)=O)cc2)C(C)C)ccc2c1B(O)OC2` [Example 6-108, 4-Sulfamoylbenzyl (1-hydroxy-7-methyl-1,3-dihydrobenzo[c][1,2]oxaborole-6-carbonyl)-L-valinate] gave a pIC50 [1] of at most 6.00.

Work on `Cc1c(C(=O)N[C@H](C(=O)OCCN2CCC3(CC2)COC3)C(C)C)ccc2c1B(O)OC2` [Example 6-217, 2-(2-oxa-7-azaspiro[3.5]nonan-7-yl)ethyl (1-hydroxy-7-methyl-1,3-dihydrobenzo[c][1,2]oxaborole-6-carbonyl)-L-valinate] yielded a pIC50 [1] of at most 6.00.

For `Cc1c(C(=O)N[C@H](C(=O)OCc2ccccn2)C(C)(C)O)ccc2c1B(O)OC2` [Example 6-230, Pyridin-2-ylmethyl (S)-3-hydroxy-2-(1-hydroxy-7-methyl-1,3-dihydrobenzo[c][1,2]oxaborole-6-carboxamido)-3-methylbutanoate], the pIC50 [1] was 6.00 to 7.68.

For `Cc1c(C(=O)NC2(C(=O)OCc3ccc(F)cc3)CC2)ccc2c1B(O)OC2` [Example 6-068, 4-Fluorobenzyl 1-(1-hydroxy-7-methyl-1,3-dihydrobenzo[c][1,2]oxaborole-6-carboxamido)cyclopropane-1-carboxylate], the pIC50 [1] was 6.00 to 7.68.

Work on `COc1c(C(=O)N[C@H](C(=O)OCc2ccc(F)cc2)C(C)C)ccc2c1B(O)OC2` [Example 6-195, 4-fluorobenzyl (1-hydroxy-7-methoxy-1,3-dihydrobenzo[c][1,2]oxaborole-6-carbonyl)-L-valinate] yielded a pIC50 [1] of 6.00 to 7.68.

`CC(C)[C@H](NC(=O)c1ccc2c(c1C(F)F)B(O)OC2)C(=O)OCc1ccccc1` [Example 6-079, Benzyl (7-(difluoromethyl)-1-hydroxy-1,3-dihydrobenzo[c][1,2]oxaborole-6-carbonyl)-L-valinate] was tested, and the pIC50 [1] was 6.00 to 7.68.

Work on `Cc1c(C(=O)N[C@H](C(=O)OCC2(O)CCOC2)C(C)C)ccc2c1B(O)OC2` (stereo partly drawn) [Example 6-250, (3-hydroxytetrahydrofuran-3-yl)methyl (1-hydroxy-7-methyl-1,3-dihydrobenzo[c][1,2]oxaborole-6-carbonyl)-L-valinate] yielded a pIC50 [1] of at most 6.00.

In the case of `Cc1c(C(=O)N[C@H](C(=O)OCc2ccc(C(=O)N(C)CCN(C)C)cc2)C(C)C)ccc2c1B(O)OC2` [Example 6-106, 4-((2-(Dimethylamino)ethyl)(methyl)carbamoyl)benzyl (1-hydroxy-7-methyl-1,3-dihydrobenzo[c][1,2]oxaborole-6-carbonyl)-L-valinate], the pIC50 [1] was at most 6.00.

`Cc1c(C(=O)N[C@H](C(=O)OCc2ccc(C(=O)N3CCN(C)CC3)cc2)C(C)C)ccc2c1B(O)OC2` [Example 6-105, 4-(4-Methylpiperazine-1-carbonyl)benzyl (1-hydroxy-7-methyl-1,3-dihydrobenzo[c][1,2]oxaborole-6-carbonyl)-L-valinate] was tested, and the pIC50 [1] was 6.00 to 7.68.

Compound `Cc1c(C(=O)N[C@H](C(=O)O[C@@H](C)c2ccccc2)C(C)C)ccc2c1B(O)OC2` [Example 6-199, (S)-1-phenylethyl (1-hydroxy-7-methyl-1,3-dihydrobenzo[c][1,2]oxaborole-6-carbonyl)-L-valinate] has a pIC50 [1] of 6.00 to 7.68.

Compound `Cc1c(C(=O)N[C@H](C(=O)OCCN2CC3CC(C2)O3)C(C)C)ccc2c1B(O)OC2` [Example 6-231, 2-(6-oxa-3-azabicyclo[3.1.1]heptan-3-yl)ethyl (1-hydroxy-7-methyl-1,3-dihydrobenzo[c][1,2]oxaborole-6-carbonyl)-L-valinate] has a pIC50 [1] of 6.00 to 7.68.

Compound `Cc1c(C(=O)N[C@H](C(=O)OCc2cncc(N(C)C)n2)C(C)C)ccc2c1B(O)OC2` [Example 6-232, (6-(dimethylamino)pyrazin-2-yl)methyl (1-hydroxy-7-methyl-1,3-dihydrobenzo[c][1,2]oxaborole-6-carbonyl)-L-valinate] has a pIC50 [1] of at least 7.70.

`Cc1c(C(=O)N[C@H](C(=O)OCc2ccccn2)C(C)C)ccc2c1B(O)OC2` [Example 6-191, Pyridin-2-ylmethyl (1-hydroxy-7-methyl-1,3-dihydrobenzo[c][1,2]oxaborole-6-carbonyl)-L-valinate] showed a pIC50 [1] of at least 7.70.

In the case of `Cc1c(C(=O)N[C@H](C(=O)O[C@H](C)c2ccccc2)C(C)C)ccc2c1B(O)OC2` [Example 6-198, (R)-1-phenylethyl (1-hydroxy-7-methyl-1,3-dihydrobenzo[c][1,2]oxaborole-6-carbonyl)-L-valinate], the pIC50 [1] was at least 7.70.

For `Cc1cc2c(cc1C(=O)N[C@H](C(=O)OCc1ccc(F)cc1)C(C)C)B(O)OC2` [Example 6-129, 4-Fluorobenzyl (1-hydroxy-5-methyl-1,3-dihydrobenzo[c][1,2]oxaborole-6-carbonyl)-L-valinate], the pIC50 [1] was 6.00 to 7.68.

In the case of `Cc1c(C(=O)N[C@H](C(=O)OC[C@@H]2CCOC2)C(C)C)ccc2c1B(O)OC2` [Example 6-234, ((R)-tetrahydrofuran-3-yl)methyl (1-hydroxy-7-methyl-1,3-dihydrobenzo[c][1,2]oxaborole-6-carbonyl)-L-valinate], the pIC50 [1] was at least 7.70.

Compound `Cc1c(C(=O)N[C@H](C(=O)OC[C@H]2CCOC2)C(C)C)ccc2c1B(O)OC2` [Example 6-235, ((S)-tetrahydrofuran-3-yl)methyl (1-hydroxy-7-methyl-1,3-dihydrobenzo[c][1,2]oxaborole-6-carbonyl)-L-valinate] has a pIC50 [1] of at least 7.70.

For `Cc1c(C(=O)N[C@H](C(=O)OCC2COCCO2)C(C)C)ccc2c1B(O)OC2` (stereo partly drawn) [Example 6-227, (1,4-dioxan-2-yl)methyl (1-hydroxy-7-methyl-1,3-dihydrobenzo[c][1,2]oxaborole-6-carbonyl)-L-valinate], the pIC50 [1] was at least 7.70.
